As usually defined, the IC50 is the concentration at which inhibition is half-maximal.

The record followed here is patent publication US10344025B2, “GLS1 inhibitors for treating disease” (Board of Regents, The University of Texas System, priority 2014, dated 2019).

The assay deals with purified recombinant human GAC (GLS1) (Homo sapiens (Human), UniProt O94925). Briefly: GLS1 Enzymatic Activity Assay (dual-coupled enzymatic assay, resorufin/Amplex UltraRed readout).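 Further: glutamate from GAC coupled via glutamate oxidase and peroxidase to resorufin, read as fluorescence (ex 530, em 590 nm) kinetically or at 20 min, four-parameter logistic IC50 fit.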 The format is biochemical.
purified recombinant human GAC (GLS1), sequence (O94925 other isoform, or with tags, fused parts or gaps): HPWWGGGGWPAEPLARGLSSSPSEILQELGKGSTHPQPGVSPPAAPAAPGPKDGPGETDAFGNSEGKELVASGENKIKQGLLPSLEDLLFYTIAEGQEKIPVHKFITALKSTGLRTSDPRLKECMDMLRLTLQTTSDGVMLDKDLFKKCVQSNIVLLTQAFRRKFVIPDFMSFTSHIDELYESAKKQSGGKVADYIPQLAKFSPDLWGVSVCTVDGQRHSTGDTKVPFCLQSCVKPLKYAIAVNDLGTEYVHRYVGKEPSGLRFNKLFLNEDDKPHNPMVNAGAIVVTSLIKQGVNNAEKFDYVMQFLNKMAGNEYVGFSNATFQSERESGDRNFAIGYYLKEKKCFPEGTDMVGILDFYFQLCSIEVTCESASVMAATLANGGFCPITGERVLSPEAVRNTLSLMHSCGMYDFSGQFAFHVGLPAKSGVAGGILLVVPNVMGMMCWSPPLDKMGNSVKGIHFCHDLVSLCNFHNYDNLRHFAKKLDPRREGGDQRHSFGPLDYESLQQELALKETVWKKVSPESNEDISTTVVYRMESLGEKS
In the case of `CC(C)(C)OC(=O)N1CCC(Cn2cc(CCCCn3cc(C(=O)NCc4cccc(OC(F)(F)F)c4)nn3)nn2)CC1` [Example 8, Tert-butyl 4-((4-(4-(4-(3-(trifluoromethoxy)benzylcarbamoyl)-1H-1,2,3-triazol-1-yl)butyl)-1H-1,2,3-triazol-1-yl)methyl)piperidine-1-carboxylate], the IC50 was in the range of 0.1 to 0.5 µM. Next, `CS(=O)(=O)NCc1cn(CCCCn2cc(C(=O)NCc3cccc(OC(F)(F)F)c3)nn2)nn1` [Example 9, 1-(4-(4-(Methylsulfonamidomethyl)-1H-1,2,3-triazol-1-yl)butyl)-N-(3-(trifluoromethoxy)benzyl)-1H-1,2,3-triazole-4-carboxamide]: 0.5 to 5 µM; `CC(C)NC(=O)c1cn(CCCCc2nnc(NC(=O)Cc3cccc(OC(F)(F)F)c3)s2)nn1` [Example 10, N-(propan-2-yl)-1-[4-(5-{2-[3-(trifluoromethoxy)phenyl]acetamido}-1,3,4-thiadiazol-2-yl)butyl]-1H-1,2,3-triazole-4-carboxamide]: 0.1 to 0.5 µM; `O=C(Cc1ccccc1)Nc1nnc(CCCCn2cc(C(=O)NCCN3CCC(O)CC3)nn2)s1` [Example 14, N-[2-(4-hydroxypiperidin-1-yl)ethyl]-1-{4-[5-(2-phenylacetamido)-1,3,4-thiadiazol-2-yl]butyl}-1H-1,2,3-triazole-4-carboxamide]: 0.5 to 5 µM.

With `CC(C)NC(=O)c1nnc(CCCCn2cc(C(=O)NCc3ccccc3)nn2)s1` [Example 38, 5-{4-[4-(benzylcarbamoyl)-1H-1,2,3-triazol-1-yl]butyl}-N-(propan-2-yl)-1,3,4-thiadiazole-2-carboxamide], the IC50 was in the range of 0.5 to 5 µM. Take `O=C(NCc1ccccc1)c1cn(CCCCc2nnc(C(=O)NCc3ccccn3)s2)nn1` [Example 40, 5-{4-[4-(benzylcarbamoyl)-1H-1,2,3-triazol-1-yl]butyl}-N-(pyridin-2-ylmethyl)-1,3,4-thiadiazole-2-carboxamide]: the IC50 lay within 0.1 to 0.5 µM. `CC(C)(C)OC(=O)N1CCC(Cn2cc(CCCCn3cc(C(=O)NCc4cccc(OC(F)(F)F)c4)nn3)nn2)CC1` [Example 53]: the 50% inhibitory concentration (IC50) lay within 0.5 to 5 µM. In the case of `CC(C)CCNCc1cn(CCCCn2cc(C(=O)NCc3cccc(OC(F)(F)F)c3)nn2)nn1` [Example 57, 1-(4-(4-((isopentylamino)methyl)-1H-1,2,3-triazol-1-yl)butyl)-N-(3-(trifluoromethoxy)benzyl)-1H-1,2,3-triazole-4-carboxamide] it was 0.5 to 5 µM; in that of `CCC(=O)NCc1cn(CCCCn2cc(C(=O)NCc3cccc(OC(F)(F)F)c3)nn2)nn1` [Example 58, 1-(4-(4-(propionamidomethyl)-1H-1,2,3-triazol-1-yl)butyl)-N-(3-(trifluoromethoxy)benzyl)-1H-1,2,3-triazole-4-carboxamide], 0.5 to 5 µM.

On to `O=C(NCc1ccccn1)c1cn(CCCCc2nnc(C(=O)NCc3ccccn3)s2)nn1` [Example 66, N-(pyridin-2-ylmethyl)-5-(4-{4-[(pyridin-2-ylmethyl)carbamoyl)-1H-1,2,3-triazol-1-yl}butyl)-1,3,4-thiadiazole-2-carboxamide], for which the IC50 lay in the range of 0.5 to 5 µM. For `Cc1ccc(CNC(=O)c2nnc(CCCCn3cc(C(=O)NCc4ccccn4)nn3)s2)cn1` [Example 67, N-[(6-methylpyridin-3-yl)methyl]-5(4-{4-[(pyridin-2-ylmethyl)carbamoyl]-1H-1,2,3-triazol-1-yl}butyl)-1,3,4-thiadiazole-2-carboxamide], the IC50 fell in the range of 0.1 to 0.5 µM. As for `O=C(NCc1ccccn1)c1cn(CCCCc2nnc(C(=O)NCC3CC3)s2)nn1` [Example 68, N-(cyclopropylmethyl)-5-(4-{4-[(pyridin-2-ylmethyl)carbamoyl]-1H-1,2,3-triazol-1-yl}butyl)-1,3,4-thiadiazole-2-carboxamide], the IC50 lay within 0.5 to 5 µM. Regarding `O=C(NCC1CC1)c1cn(CCCCc2nnc(C(=O)NCc3ccccn3)s2)nn1` [Example 69, 5-(4-{4-[(cyclopropylmethyl)carbamoyl]-1H-1,2,3-triazol-1-yl}butyl)-N-(pyridin-2-ylmethyl)-1,3,4-thiadiazole-2-carboxamide], the IC50 lay within 0.5 to 5 µM.

For the compound `Cc1ccc(CNC(=O)c2nnc(CCCCn3cc(C(=O)NCC4CC4)nn3)s2)cn1` [Example 70, 5-(4-{4-[(cyclopropylmethyl)carbamoyl]-1H-1,2,3-triazol-1-yl}butyl)-N-[(6-methylpyridin-3-yl)methyl]-1,3,4-thiadiazole-2-carboxamide], the IC50 fell in the range of 0.5 to 5 µM. On to `O=C(NCc1ccccn1)c1cn(CCCCn2cc(C(=O)NCc3ccccn3)nn2)nn1` [Example 71, N-(pyridin-2-ylmethyl)-1-(4-{4-[(pyridin-2-ylmethyl)carbamoyl]-1H-1,2,3-triazol-1-yl}butyl)-1H-1,2,3-triazole-4-carboxamide], for which the half-inhibitory concentration (IC50) lay in the range of 0.5 to 5 µM. Turning to `Cc1ccc(CNC(=O)c2cn(CCCCc3nnc(C(=O)NCC4CN(C(=O)OC(C)(C)C)C4)s3)nn2)cn1` [Example 74, tert-butyl 3-[({5-[4-(4-{[(6-methylpyridin-3-yl)methyl]carbamoyl}-1H-1,2,3-triazol-1-yl)butyl]-1,3,4-thiadiazol-2-yl}formamido)methyl] azetidine-1-carboxylate], the IC50 was 0.1 to 0.5 µM. In the case of `O=C(CC1CC1)Nc1cn(CCCCn2cc(C(=O)NCc3ccccn3)nn2)nn1` [Example 278, 1-{4-[4-(2-cyclopropylacetamido)-1H-1,2,3-triazol-1-yl]butyl}-N-(pyridin-2-ylmethyl)-1H-1,2,3-triazole-4-carboxamide] it was 0.5 to 5 µM; in that of `O=C(CC1CC1)Nc1cn(CCCCn2cc(C(=O)NCC3CCCCC3)nn2)nn1` [Example 281, N-(cyclohexylmethyl)-1-{4-[4-(2-cyclopropylacetamido)-1H-1,2,3-triazol-1-yl]butyl}-1H-1,2,3-triazole-4-carboxamide], 0.5 to 5 µM; in that of `O=C(CC1CCCC1)Nc1cn(CCCCn2cc(C(=O)NCC3CCCCC3)nn2)nn1` [Example 282, N-(cyclohexylmethyl)-1-{4-[4-(2-cyclopentylacetamido)-1H-1,2,3-triazol-1-yl]butyl}-1H-1,2,3-triazole-4-carboxamide], 0.5 to 5 µM. Next, `O=C(CC1CCCCC1)Nc1cn(CCCCn2cc(C(=O)NCC3CCCCC3)nn2)nn1` [Example 283, 1-{4-[4-(2-cyclohexylacetamido)-1H-1,2,3-triazol-1-yl]butyl}-N-(cyclohexylmethyl)-1H-1,2,3-triazole-4-carboxamide]: 0.5 to 5 µM. Next, `O=C(CC1CC1)Nc1cn(CCCCn2cc(C(=O)NCC3CCCC3)nn2)nn1` [Example 287, N-(cyclopentylmethyl)-1-{4-[4-(2-cyclopropylacetamido)-1H-1,2,3-triazol-1-yl]butyl}-1H-1,2,3-triazole-4-carboxamide]: 0.5 to 5 µM; `O=C(CC1CCCCC1)Nc1cn(CCCCn2cc(C(=O)NCC3CCCC3)nn2)nn1` [Example 289, 1-{4-[4-(2-cyclohexylacetamido)-1H-1,2,3-triazol-1-yl]butyl}-N-(cyclopentylmethyl)-1H-1,2,3-triazole-4-carboxamide]: 0.5 to 5 µM.

Regarding `O=C(Cc1cccnc1)Nc1cn(CCCCn2cc(C(=O)NCC3CCCC3)nn2)nn1` [Example 290, N-(cyclopentylmethyl)-1-(4-{4-[2-(pyridin-3-yl)acetamido]-1H-1,2,3-triazol-1-yl}butyl)-1H-1,2,3-triazole-4-carboxamide], the IC50 was in the range of 0.5 to 5 µM. As for `O=C(Cc1ccccn1)Nc1cn(CCCCn2cc(C(=O)NCC3CCCC3)nn2)nn1` [Example 291, N-(cyclopentylmethyl)-1-(4-{4-[2-(pyridin-2-yl)acetamido]-1H-1,2,3-triazol-1-yl}butyl)-1H-1,2,3-triazole-4-carboxamide], the IC50 lay in the range of 0.5 to 5 µM. On to `O=C(Cc1ccccn1)Nc1cn(CCCCn2cc(C(=O)NCc3ccccn3)nn2)nn1` [Example 297, 1-[4-[4-[[2-(2-pyridyl)acetyl]amino]triazol-1-yl]butyl]-N-(2-pyridylmethyl)triazole-4-carboxamide], for which the half-maximal inhibitory concentration (IC50) is 0.5 to 5 µM. As for `O=C(Cc1cccnc1)Nc1cn(CCCCn2cc(C(=O)NCc3ccccn3)nn2)nn1` [Example 298, N-(pyridin-2-ylmethyl)-1-(4-{4-[2-(pyridin-3-yl)acetamido]-1H-1,2,3-triazol-1-yl}butyl)-1H-1,2,3-triazole-4-carboxamide], the IC50 is 0.5 to 5 µM. In the case of `O=C(Cc1ccccn1)Nc1cn(CCCCn2cc(C(=O)NCC3CC3)nn2)nn1` [Example 302, N-(cyclopropylmethyl)-1-(4-{4-[2-(pyridin-2-yl)acetamido]-1H-1,2,3-triazol-1-yl}butyl)-1H-1,2,3-triazole-4-carboxamide] it was 0.5 to 5 µM.

`O=C(Cc1cccnc1)Nc1cn(CCCCn2cc(C(=O)NCC3CC3)nn2)nn1` [Example 303, N-(cyclopropylmethyl)-1-(4-{4-[2-(pyridin-3-yl)acetamido]-1H-1,2,3-triazol-1-yl}butyl)-1H-1,2,3-triazole-4-carboxamide]: the IC50 fell in the range of 0.5 to 5 µM. In the case of `O=C(CC1CCCC1)Nc1cn(CCCCn2cc(C(=O)NCC3CC3)nn2)nn1` [Example 304, 1-{4-[4-(2-cyclopentylacetamido)-1H-1,2,3-triazol-1-yl]butyl}-N-(cyclopropylmethyl)-1H-1,2,3-triazole-4-carboxamide] it was 0.5 to 5 µM; in that of `O=C(CC1CC1)Nc1cn(CCCCn2cc(C(=O)NCc3cccnc3)nn2)nn1` [Example 308, 1-{4-[4-(2-cyclopropylacetamido)-1H-1,2,3-triazol-1-yl]butyl}-N-(pyridin-3-ylmethyl)-1H-1,2,3-triazole-4-carboxamide], 0.5 to 5 µM; in that of `O=C(CN1CC(F)(F)C1)Nc1cn(CCCCn2cc(C(=O)NCc3ccccn3)nn2)nn1` [Example 323, 1-(4-{4-[2-(3,3-difluoroazetidin-1-yl)acetamido]-1H-1,2,3-triazol-1-yl}butyl)-N-(pyridin-2-ylmethyl)-1H-1,2,3-triazole-4-carboxamide], 0.5 to 5 µM. For `O=C(CN1CC(F)C1)Nc1cn(CCCCn2cc(C(=O)NCc3ccccn3)nn2)nn1` [Example 324, 1-(4-{4-[2-(3-fluoroazetidin-1-yl)acetamido]-1H-1,2,3-triazol-1-yl}butyl)-N-(pyridin-2-ylmethyl)-1H-1,2,3-triazole-4-carboxamide], the IC50 was 0.5 to 5 µM.
